Reference: patent US20260070918A1, “HETEROBICYCLIC COMPOUNDS AS EP4 RECEPTOR ANTAGONISTS” (priority 2022, published 2026)
pIC50: −log10 of the molar value.

Columns and labels:
EP4 receptor = EP4 receptor (Homo sapiens (Human), UniProt P35408); experiment: EP4 receptor binding assay (inhibition of [3H]PGE2 binding); details: human recombinant Chem-1 cells, 1 nM [3H]PGE2, 2 hours @25° C.
Procedure: Transfected HEK 293(ebna) cells are maintained in culture and harvested, and membranes are prepared by differential centrifugation, following lysis of the cells in the presence of protease inhibitors, for use in receptor binding assays. Prostanoid receptor binding assays (for DP1, DP2 (CRTH2), EP1, EP2, EP3-III, EP4, FP, IP, and TP) are performed in 10 mM MES/KOH (pH 6.0) (EPs, FP and TP) or 10 mM HEPES/KOH (pH 7.4) (DPs and IP), containing 1 mM EDTA, 2.5-30 mM divalent cation and the appropriate radioligand that specifically binds to a target prostanoid receptor. Synthetic compounds are added in dimethyl sulfoxide which is kept constant at 1% (v/v) in all incubations. The reaction is initiated by addition of membrane protein. Non-specific binding is determined in the presence of 10 μM of the corresponding non-radioactive prostanoid. Incubations are conducted for 60-90 min at room temperature or 30° C. and terminated by rapid filtration. Compound binding is calculated as a % inhibition of the binding of the radioligand after subtracting nonspecific binding from total binding. The residual specific binding at each ligand concentration is calculated and expressed as a function of ligand concentration to construct sigmoidal concentration-response curve. Half maximal inhibitory concentration, IC50 values of compounds are determined by nonlinear regression analysis of the concentration-response curves using Hill equation curve fitting equation Y=D+[(A−D)/(1+C/IC50)^H], where Y=specific binding, A=left asymptote of the curve, D=right asymptote of the curve, C=compound concentration, and H=slope factor. The binding affinity of the compounds is determined by calculating the equilibrium inhibition constant (Ki) from the equation Ki═InPt/1+[radioligand]/Kd where Kd is the equilibrium dissociation constant for the radioligand: receptor interaction and InPt is the inflection point of the dose-response curves.
EP4 receptor binding assays were performed at MSD Pharma Service in Taiwan under the following assay conditions: • Source: Human recombinant Chem-1 cells • Ligand: 1 nM [^3H]

[1] = Liver microsomal stability, human; assay type: in vitro ADME; details: pooled human liver microsomes; for microsomal CLint: read-out: In vitro CLint; for half-life: read-out: In vitro T1/2; for CLint scaled: read-out: Scale-up CLint
Procedure: (§1) Microsomal stability assay is performed to understand the metabolism of the representative compounds.
(§2) In vitro microsomal stability was determined in pooled human, dog, rat, and mouse liver microsomes. Test compounds (Table 2) were incubated in the presence and absence of NADPH for 0-60 min and the amount of remaining compound was quantified through LC-MS/MS analysis.

[2] = Liver microsomal stability, dog; assay type: in vitro ADME; details: pooled dog liver microsomes; for microsomal CLint: read-out: In vitro CLint; for half-life: read-out: In vitro T1/2; for CLint scaled: read-out: Scale-up CLint
Procedure: as §1, §2

[3] = Liver microsomal stability, rat; assay type: in vitro ADME; details: pooled rat liver microsomes; for microsomal CLint: read-out: In vitro CLint; for half-life: read-out: In vitro T1/2; for CLint scaled: read-out: Scale-up CLint
Procedure: as §1, §2

[4] = Liver microsomal stability, mouse; assay type: in vitro ADME; details: pooled mouse liver microsomes; for microsomal CLint: read-out: In vitro CLint; for half-life: read-out: In vitro T1/2; for CLint scaled: read-out: Scale-up CLint
Procedure: as §1, §2

[5] = Rat pharmacokinetic (PK) assay; assay type: in vivo, Sprague-Dawley rat
Procedure: Test compound was dissolved in 10% DMSO, 40% PEG-400, and 50% water for intravenous (i.v.) and oral (p.o.) administration to rat. […] Three male animals received single p.o. doses by gavage tube (5 mg/kg). Blood samples were collected into K2-EDTA tubes from the jugular vein at 0.083, 0.25, 0.5, 1, 2, 4, 8, and 24 h post dosing. After centrifugation, plasma samples were prepared via protein precipitation and detected through LC-MS/MS. The pharmacokinetics parameters were calculated using Phoenix software V 8.3.4.

[6] = male, Sprague-Dawley, plasma, Rat iv, dose 5 mg/kg (table)
[7] = male, Sprague-Dawley, plasma, Rat po, dose 10 mg/kg (table)

EP4 receptor, sequence (P35408 whole entry): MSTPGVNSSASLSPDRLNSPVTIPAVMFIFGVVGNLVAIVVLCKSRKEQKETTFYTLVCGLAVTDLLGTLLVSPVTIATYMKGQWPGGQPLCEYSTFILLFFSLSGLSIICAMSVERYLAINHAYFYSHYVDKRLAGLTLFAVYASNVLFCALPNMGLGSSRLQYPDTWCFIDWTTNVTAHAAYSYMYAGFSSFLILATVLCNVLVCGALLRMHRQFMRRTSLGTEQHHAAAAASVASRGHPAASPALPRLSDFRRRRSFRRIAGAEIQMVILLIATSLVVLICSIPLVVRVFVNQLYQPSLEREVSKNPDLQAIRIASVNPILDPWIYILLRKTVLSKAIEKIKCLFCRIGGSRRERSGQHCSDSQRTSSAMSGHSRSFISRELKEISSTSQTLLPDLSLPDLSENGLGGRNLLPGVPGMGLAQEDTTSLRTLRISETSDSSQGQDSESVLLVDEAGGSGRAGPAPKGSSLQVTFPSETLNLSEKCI

## 3-[1-[[2-methyl-4-[[4-(trifluoromethyl)phenyl]methyl]thieno[3,2-b]pyrrole-3-carbonyl]amino]ethyl]bicyclo[1.1.1]pentane-1-carboxylic acid [Example 10]
EP4 receptor
  pIC50: 6.21

## O=C(O)c1ccc(C2(NC(=O)c3c(Cl)sc4ccn(Cc5ccc(C(F)(F)F)cc5)c34)CC2)cc1 [Example 1, 4-[1-[[2-chloro-4-[[4-(trifluoromethyl)phenyl]methyl]thieno[3,2-b]pyrrole-3-carbonyl]amino]cyclopropyl]benzoic acid]
EP4 receptor
  pIC50: 9.60
[1]
  microsomal CLint: 11.4 µL/min/mg
  half-life: 2.03 h
  CLint scaled: 14.3 mL/min/kg
[2]
  microsomal CLint: 9.89 µL/min/mg
  half-life: 2.33 h
  CLint scaled: 24.6 mL/min/kg
[3]
  microsomal CLint: 13.4 µL/min/mg
  half-life: 1.73 h
  CLint scaled: 24 mL/min/kg
[4]
  microsomal CLint: 15 µL/min/mg
  half-life: 1.54 h
  CLint scaled: 66.1 mL/min/kg
[5]; Rat iv, dose 5 mg/kg (table)
  CL_obs: 2.57 mL/min/kg
  Vss_obs: 1.64 L/kg
[5]; [6]
  AUC(0-inf): 33600 ng·h/mL
  AUC(0-t): 27700 ng·h/mL
  C0: 8380 ng/mL
  MRT: 5.93 h
  half-life: 9.47 h
[5]; [7]
  AUC(0-inf): 26700 ng·h/mL
  AUC(0-t): 23400 ng·h/mL
  Cmax: 1830 ng/mL
  MRT: 7.98 h
  Tmax: 6.67 h
  half-life: 8.97 h
[5]; male, Sprague-Dawley, plasma, Rat po, dose 10 mg/kg vs iv 5 mg/kg (table)
  bioavailability: 42.3%

## O=C(O)c1ccc(C2(NC(=O)c3c(CO)sc4ccn(Cc5ccc(C(F)(F)F)cc5)c34)CC2)cc1 [Example 2, 4-[1-[[2-(hydroxymethyl)-4-[[4-(trifluoromethyl)phenyl]methyl]thieno[3,2-b]pyrrole-3-carbonyl]amino]cyclopropyl]benzoic acid]
EP4 receptor
  pIC50: 8.96

## O=C(O)c1ccc(C2(NC(=O)c3c(F)sc4ccn(Cc5ccc(C(F)(F)F)cc5)c34)CC2)cc1 [Example 3, 4-(1-(2-fluoro-4-(4-(trifluoromethyl)benzyl)-4H-thieno[3,2-b]pyrrole-3-carboxamido)cyclopropyl)benzoic acid]
EP4 receptor
  pIC50: 9.32
[1]
  microsomal CLint: 4.03 µL/min/mg
  half-life: 5.73 h
  CLint scaled: 5.05 mL/min/kg
[2]
  microsomal CLint: 3.2 µL/min/mg
  half-life: 7.23 h
  CLint scaled: 7.97 mL/min/kg
[3]
  microsomal CLint: 8.4 µL/min/mg
  half-life: 2.75 h
  CLint scaled: 15 mL/min/kg
[4]
  microsomal CLint: 6.85 µL/min/mg
  half-life: 3.37 h
  CLint scaled: 30.1 mL/min/kg

## COc1sc2ccn(Cc3ccc(C(F)(F)F)cc3)c2c1C(=O)NC1(c2ccc(C(=O)O)cc2)CC1 [Example 4, 4-(1-(2-methoxy-4-(4-(trifluoromethyl)benzyl)-4H-thieno[3,2-b]pyrrole-3-carboxamido)cyclopropyl)benzoic acid]
EP4 receptor
  pIC50: 9.46
[1]
  microsomal CLint: 3.24 µL/min/mg
  half-life: 7.13 h
  CLint scaled: 4.06 mL/min/kg
[2]
  microsomal CLint: 6.06 µL/min/mg
  half-life: 3.82 h
  CLint scaled: 15.1 mL/min/kg
[3]
  microsomal CLint: 11.1 µL/min/mg
  half-life: 2.08 h
  CLint scaled: 19.8 mL/min/kg
[4]
  microsomal CLint: 10.6 µL/min/mg
  half-life: 2.18 h
  CLint scaled: 46.7 mL/min/kg

## O=C(NC1(C23CC(C(=O)O)(C2)C3)CC1)c1c(Cl)sc2ccn(Cc3ccc(C(F)(F)F)cc3)c12 [Example 5, 3-[1-[[2-chloro-4-[[4-(trifluoromethyl)phenyl]methyl]thieno[3,2-b]pyrrole-3-carbonyl]amino]cyclopropyl]bicyclo[1.1.1]pentane-1-carboxylic acid]
EP4 receptor
  pIC50: 7.55

## O=C(NC1(C23CCC(C(=O)O)(CC2)CC3)CC1)c1c(Cl)sc2ccn(Cc3ccc(C(F)(F)F)cc3)c12 [Example 6, 4-[1-[[2-chloro-4-[[4-(trifluoromethyl)phenyl]methyl]thieno[3,2-b]pyrrole-3-carbonyl]amino]cyclopropyl]bicyclo[2.2.2]octane-1-carboxylic acid]
EP4 receptor
  pIC50: 8.08

## Cc1sc2ccn(Cc3ccc(C(F)(F)F)cc3)c2c1C(=O)NC1(C23CC(C(=O)O)(C2)C3)CC1 [Example 7, 3-[1-[[2-methyl-4-[[4-(trifluoromethyl)phenyl]methyl]thieno[3,2-b]pyrrole-3-carbonyl]amino]cyclopropyl]bicyclo[1.1.1]pentane-1-carboxylic acid]
EP4 receptor
  pIC50: 7.30

## Cc1sc2ccn(Cc3ccc(C(F)(F)F)cc3)c2c1C(=O)NC1(C23CCC(C(=O)O)(CC2)CC3)CC1 [Example 8, 4-[1-[[2-methyl-4-[[4-(trifluoromethyl)phenyl]methyl]thieno[3,2-b]pyrrole-3-carbonyl]amino]cyclopropyl]bicyclo[2.2.2]octane-1-carboxylic acid]
EP4 receptor
  pIC50: 8.31

## CC(NC(=O)c1c(Cl)sc2ccn(Cc3ccc(C(F)(F)F)cc3)c12)C12CC(C(=O)O)(C1)C2 (stereo not shown) [Example 9, 3-[1-[[2-chloro-4-[[4-(trifluoromethyl)phenyl]methyl]thieno[3,2-b]pyrrole-3-carbonyl]amino]ethyl]bicyclo[1.1.1]pentane-1-carboxylic acid]
EP4 receptor
  pIC50: 6.74

## O=C(O)c1ccc(C2(NC(=O)c3c(C(F)(F)F)sc4ccn(Cc5ccc(C(F)(F)F)cc5)c34)CC2)cc1 [Example 11, 4-(1-(2-(trifluoromethyl)-4-(4-(trifluoromethyl)benzyl)-4H-thieno[3,2-b]pyrrole-3-carboxamido)cyclopropyl)benzoic acid]
EP4 receptor
  pIC50: 8.92
